Data: paper PMC8443589, “Modelling human liver fibrosis in the context of non-alcoholic steatohepatitis using a microphysiological system” (Communications Biology, 2021)
Where “and” joins values, the source holds several entries; their conditions need not be identical. Equal entries are not always repeated.

Key:
[1] = system: liver MPS NASH model (PHH, KC and HSC co-cultures, high fat); assay: Fibrosis gene expression (Human Fibrosis RT2 Profiler PCR Arrays) in liver MPS NASH model dosed with OCA or ELF; format: cell-based; conditions: 10 days, individual cultures
Experimental: Fig. 3 Obeticholic acid and Elafibranor both modulate inflammatory and fibrosis phenotype in liver MPS NASH model and phenotype can additionally be reversed with dietary changes. PHH, KC and HSC co-cultures were cultured in the MPS platform under high fat conditions and dosed with varying concentrations of Obeticholic acid (OCA) and Elafibranor (ELF) QD or vehicle control (control) for 10 days, following an initial 4-day pre-culture phase. a The secreted cytokine profile from liver microtissues was compared by Luminex to determine the effects of each compound on the inflammatory profile of the liver with samples analysed at day 8 and 14 of the culture. Data were normalised by Z-transformation to allow comparison of all analytes and presented as a heatmap. b The expression of fibrosis-associated genes was analysed in total RNA from control, OCA and ELF treated liver microtissues (highest concentration for each compound) using Human Fibrosis RT2 Profiler PCR Arrays. Gene expression changes are expressed as a fold change over control. c Liver microtissues were stained for collagen-type I, α-SMA, nuclei (DAPI - blue), phalloidin (green) and imaged by confocal microscopy. Representative images are shown and scale bars 200 µm. d Staining of microtissue was quantified by measuring total fluorescence intensity throughout individual microtissues, each data point represents an average of all the microtissues imaged within an MPS scaffold (min 8, max 20 microtissues). e PHH, KC and HSC co-cultures were cultured in the MPS platform under high fat or lean conditions for 30 days. Cultures either remained in the same type of media throughout or were switched at day 15 from fat media to lean media (Fat -> Lean). Cell culture medium samples were analysed for the presence of IL-6, f MCP-1, g TIMP-1, which were measured by ELISA. h Microtissues were stained with Oil-Red O to determine fat loading during culture period, total stain was quantified by absorbance at 510 nm. All datapoints shown, either as box-whisker plots highlighting mean and min-max or with error bars highlighting means ± SD. All data from a minimum of three independent cultures; statistical comparisons made to control samples unless other comparison shown.
Total RNA was extracted from liver microtissue-containing scaffolds using TRIzol® Reagent (Ambion, USA) and a chloroform phase separation. RNA was precipitated from aqueous phase samples using 100% isopropanol and RNA pellets were resuspended in dH2O. Samples were analysed by both QPCR and RNAseq. For QPCR, reverse transcription and PCR were performed using RT2 First Strand Kit and Human Fibrosis RT² Profiler™ PCR Arrays (PAHS-120Z) (Qiagen, UK), with samples analysed on a Quantstudio 6 Real-Time PCR System (Applied Biosystems, UK). Ct values from samples were compared and normalised to house-keeping gene expression. The fold-change in each transcript represented on the array plate was determined using RT2 Profiler™ PCR Array Data Analysis (v. 3.5) Web Portal (Qiagen, UK).
Liver microtissues were cultured for 4 days in HEP-FAT medium, before dosing with obeticholic acid or elafibranor. Both compounds were dissolved in DMSO, diluted in cell culture medium (final DMSO concentration ≤1%) and added to microtissues during a full medium change every two days and in addition on the intervening days compounds were spiked into the media to increase drug concentration back to desired concentrations. Cultures were maintained in the presence of the compound, for a total of 10 days in the presence or absence of TGFβ.

[2] = Non-specific compound binding: drug recovery in blank liver MPS plates (no cells), LC-MS; format: in vitro ADME; conditions: blank liver MPS platform/plates, vs input media, read-out: Drug recovery incubation in blank MPS platform (no cells)

Compound	CCL2 relative gene expression compared to GAPDH housekeeping gene ([1]; 65.0 uM ELF, listed as ELF)	CCL3 relative gene expression compared to GAPDH housekeeping gene ([1]; 65.0 uM ELF, listed as ELF)	CCL11 relative gene expression compared to GAPDH housekeeping gene ([1]; 65.0 uM ELF, listed as ELF)	CEBPB relative gene expression compared to GAPDH housekeeping gene ([1]; 65.0 uM ELF, listed as ELF)	CXCR4 relative gene expression compared to GAPDH housekeeping gene ([1]; 65.0 uM ELF, listed as ELF)	DCN relative gene expression compared to GAPDH housekeeping gene ([1]; 65.0 uM ELF, listed as ELF)	HGF relative gene expression compared to GAPDH housekeeping gene ([1]; 65.0 uM ELF, listed as ELF)	MMP1 relative gene expression compared to GAPDH housekeeping gene ([1]; 65.0 uM ELF, listed as ELF)	MMP9 relative gene expression compared to GAPDH housekeeping gene ([1]; 65.0 uM ELF, listed as ELF)	recovery at 1 µM [2]	CCL2 relative gene expression compared to GAPDH housekeeping gene ([1]; 12.5 uM OCA, listed as OCA)	CCL3 relative gene expression compared to GAPDH housekeeping gene ([1]; 12.5 uM OCA, listed as OCA)	CCL11 relative gene expression compared to GAPDH housekeeping gene ([1]; 12.5 uM OCA, listed as OCA)	CEBPB relative gene expression compared to GAPDH housekeeping gene ([1]; 12.5 uM OCA, listed as OCA)	CXCR4 relative gene expression compared to GAPDH housekeeping gene ([1]; 12.5 uM OCA, listed as OCA)	DCN relative gene expression compared to GAPDH housekeeping gene ([1]; 12.5 uM OCA, listed as OCA)	HGF relative gene expression compared to GAPDH housekeeping gene ([1]; 12.5 uM OCA, listed as OCA)	MMP1 relative gene expression compared to GAPDH housekeeping gene ([1]; 12.5 uM OCA, listed as OCA)	MMP9 relative gene expression compared to GAPDH housekeeping gene ([1]; 12.5 uM OCA, listed as OCA)
CSc1ccc(C(=O)/C=C/c2cc(C)c(OC(C)(C)C(=O)O)c(C)c2)cc1 [Elafibranor]	3.92e-9 and 2.6e-9 and 6.31e-9	3.39e-10 and 1.55e-10 and 3.45e-10	4.99e-10 and 6.3e-10 and 6.52e-10	1.2e-8 and 1.1e-8 and 2.65e-8	1.13e-9 and 7.47e-10 and 1.7e-9	2.4e-7 and 1.65e-7 and 3.13e-7	6.26e-10 and 2.45e-10 and 6.68e-10	2.95e-9 and 8.23e-10 and 3.25e-9	1.04e-8 and 2.47e-9 and 9.28e-9	97%									
CC[C@H]1[C@@H](O)[C@@H]2[C@H](CC[C@]3(C)[C@@H]([C@H](C)CCC(=O)O)CC[C@@H]23)[C@@]2(C)CC[C@@H](O)C[C@@H]12 [Obeticholic acid]										110%	5.71e-9 and 9.72e-9 and 5e-9	1.11e-9 and 5.96e-10 and 3.11e-10	3.39e-10 and 4.66e-10 and 1.94e-10	3e-8 and 1.33e-8 and 1.62e-8	2.04e-9 and 8.2e-10 and 6.3e-10	3.44e-7 and 1.39e-7 and 1.03e-7	1.68e-9 and 5.3e-10 and 3.89e-10	9.31e-10 and 1.58e-9 and 2.05e-9	1.47e-8 and 5.79e-9 and 3e-9
